Earlier results in patent publication US20220079925A1, “COMPOSITIONS COMPRISING TACROLIMUS FOR THE TREATMENT OF INTRAOCULAR INFLAMMATORY EYE DISEASES” (NOVALIQ GMBH, priority 2016, published 2022).

Experiments:
[1] = topical administration
T-lymphocyte = conditions: inhibiting T-lymphocyte signal transduction and cell proliferation

- ability to penetrate tissue barrier [1]: poor
Compound: C=CC[C@@H]1/C=C(\C)C[C@H](C)C[C@H](OC)[C@H]2O[C@@](O)(C(=O)C(=O)N3CCCC[C@H]3C(=O)O[C@H](/C(C)=C/[C@@H]3CC[C@@H](O)[C@H](OC)C3)[C@H](C)[C@@H](O)CC1=O)[C@H](C)C[C@@H]2OC [Tacrolimus]
- potency relative to cyclosporine (T-lymphocyte): 100 times
